# Columns and labels:
# OVCAR-5 (ovarian cancer) = assay: NCI 60-cell one-dose antiproliferative screen; format: cell-based, human; details: one dose 10 μM
# A498 (renal cancer) = assay: NCI 60-cell one-dose antiproliferative screen; format: cell-based, human; details: one dose 10 μM
# UACC-257 (melanoma) = assay: NCI 60-cell one-dose antiproliferative screen; format: cell-based, human; details: one dose 10 μM
# TK-10 (renal cancer) = assay: NCI 60-cell one-dose antiproliferative screen; format: cell-based, human; details: one dose 10 μM
# ACHN (renal cancer) = assay: NCI 60-cell one-dose antiproliferative screen; format: cell-based, human; details: one dose 10 μM
# HCT-116 (colon cancer) = assay: NCI 60-cell one-dose antiproliferative screen; format: cell-based, human; details: one dose 10 μM
# OVCAR-4 (ovarian cancer) = assay: NCI 60-cell one-dose antiproliferative screen; format: cell-based, human; details: one dose 10 μM
# HT29 (colon cancer) = assay: NCI 60-cell one-dose antiproliferative screen; format: cell-based, human; details: one dose 10 μM
# 786-0 (renal cancer) = assay: NCI 60-cell one-dose antiproliferative screen; format: cell-based, human; details: one dose 10 μM
# [1] = system: NCI-H322M (NSC lung cancer); assay: NCI 60-cell one-dose antiproliferative screen; format: cell-based, human; details: one dose 10 μM
# UO-31 (renal cancer) = assay: NCI 60-cell one-dose antiproliferative screen; format: cell-based, human; details: one dose 10 μM
# SW-620 (colon cancer) = assay: NCI 60-cell one-dose antiproliferative screen; format: cell-based, human; details: one dose 10 μM
# [2] = system: A549/ATCC (NSC lung cancer); assay: NCI 60-cell one-dose antiproliferative screen; format: cell-based, human; details: one dose 10 μM
# T-47D (breast cancer) = assay: NCI 60-cell one-dose antiproliferative screen; format: cell-based, human; details: one dose 10 μM
# U251 (CNS cancer) = assay: NCI 60-cell one-dose antiproliferative screen; format: cell-based, human; details: one dose 10 μM
# SF-268 (CNS cancer) = assay: NCI 60-cell one-dose antiproliferative screen; format: cell-based, human; details: one dose 10 μM
# [3] = system: NCI-H522 (NSC lung cancer); assay: NCI 60-cell one-dose antiproliferative screen; format: cell-based, human; details: one dose 10 μM
# MDA-MB-435 (melanoma) = assay: NCI 60-cell one-dose antiproliferative screen; format: cell-based, human; details: one dose 10 μM
# CCRF-CEM (leukemia) = assay: NCI 60-cell one-dose antiproliferative screen; format: cell-based, human; details: one dose 10 μM
# SN12C (renal cancer) = assay: NCI 60-cell one-dose antiproliferative screen; format: cell-based, human; details: one dose 10 μM
# EKVX (NSC lung cancer) = assay: NCI 60-cell one-dose antiproliferative screen; format: cell-based, human; details: one dose 10 μM
# [4] = system: NCI-H23 (NSC lung cancer); assay: NCI 60-cell one-dose antiproliferative screen; format: cell-based, human; details: one dose 10 μM
# SNB-75 (CNS cancer) = assay: NCI 60-cell one-dose antiproliferative screen; format: cell-based, human; details: one dose 10 μM
# DU-145 (prostate cancer) = assay: NCI 60-cell one-dose antiproliferative screen; format: cell-based, human; details: one dose 10 μM
# HCT-15 (colon cancer) = assay: NCI 60-cell one-dose antiproliferative screen; format: cell-based, human; details: one dose 10 μM
# RPMI-8226 (leukemia) = assay: NCI 60-cell one-dose antiproliferative screen; format: cell-based, human; details: one dose 10 μM
# SF-295 (CNS cancer) = assay: NCI 60-cell one-dose antiproliferative screen; format: cell-based, human; details: one dose 10 μM
# [5] = system: NCI/ADR-RES (ovarian cancer); assay: NCI 60-cell one-dose antiproliferative screen; format: cell-based, human; details: one dose 10 μM
# SNB-19 (CNS cancer) = assay: NCI 60-cell one-dose antiproliferative screen; format: cell-based, human; details: one dose 10 μM
# M14 (melanoma) = assay: NCI 60-cell one-dose antiproliferative screen; format: cell-based, human; details: one dose 10 μM
# LOX IMIV (melanoma) = assay: NCI 60-cell one-dose antiproliferative screen; format: cell-based, human; details: one dose 10 μM
# MCF7 (breast cancer) = assay: NCI 60-cell one-dose antiproliferative screen; format: cell-based, human; details: one dose 10 μM
# [6] = system: MDA-MB-468 (breast cancer); assay: NCI 60-cell one-dose antiproliferative screen; format: cell-based, human; details: one dose 10 μM
# IGROV1 (ovarian cancer) = assay: NCI 60-cell one-dose antiproliferative screen; format: cell-based, human; details: one dose 10 μM
# UACC-62 (melanoma) = assay: NCI 60-cell one-dose antiproliferative screen; format: cell-based, human; details: one dose 10 μM
# RXF 393 (renal cancer) = assay: NCI 60-cell one-dose antiproliferative screen; format: cell-based, human; details: one dose 10 μM
# CAKI-1 (renal cancer) = assay: NCI 60-cell one-dose antiproliferative screen; format: cell-based, human; details: one dose 10 μM
# OVCAR-3 (ovarian cancer) = assay: NCI 60-cell one-dose antiproliferative screen; format: cell-based, human; details: one dose 10 μM
# HCC-2998 (colon cancer) = assay: NCI 60-cell one-dose antiproliferative screen; format: cell-based, human; details: one dose 10 μM
# HOP-92 (NSC lung cancer) = assay: NCI 60-cell one-dose antiproliferative screen; format: cell-based, human; details: one dose 10 μM
# PC-3 (prostate cancer) = assay: NCI 60-cell one-dose antiproliferative screen; format: cell-based, human; details: one dose 10 μM
# COLO-205 (colon cancer) = assay: NCI 60-cell one-dose antiproliferative screen; format: cell-based, human; details: one dose 10 μM
# SK-MEL-28 (melanoma) = assay: NCI 60-cell one-dose antiproliferative screen; format: cell-based, human; details: one dose 10 μM
# SK-MEL-2 (melanoma) = assay: NCI 60-cell one-dose antiproliferative screen; format: cell-based, human; details: one dose 10 μM
# MALME-3M (melanoma) = assay: NCI 60-cell one-dose antiproliferative screen; format: cell-based, human; details: one dose 10 μM
# HOP-62 (NSC lung cancer) = assay: NCI 60-cell one-dose antiproliferative screen; format: cell-based, human; details: one dose 10 μM
# HS 578T (breast cancer) = assay: NCI 60-cell one-dose antiproliferative screen; format: cell-based, human; details: one dose 10 μM
# SK-OV-3 (ovarian cancer) = assay: NCI 60-cell one-dose antiproliferative screen; format: cell-based, human; details: one dose 10 μM
# OVCAR-8 (ovarian cancer) = assay: NCI 60-cell one-dose antiproliferative screen; format: cell-based, human; details: one dose 10 μM
# [7] = system: NCI-H460 (NSC lung cancer); assay: NCI 60-cell one-dose antiproliferative screen; format: cell-based, human; details: one dose 10 μM
# KM12 (colon cancer) = assay: NCI 60-cell one-dose antiproliferative screen; format: cell-based, human; details: one dose 10 μM
# [8] = system: 60 human tumor cell lines; assay: NCI 60-cell one-dose antiproliferative screen, whole panel; format: cell-based; details: Homo sapiens, 60 cell, read-out: Mean inhibition (mean GI%)
# [9] = system: MDA-MB-231/ATCC (breast cancer); assay: NCI 60-cell one-dose antiproliferative screen; format: cell-based, human; details: one dose 10 μM
# [10] = system: NCI-H226 (NSC lung cancer); assay: NCI 60-cell one-dose antiproliferative screen; format: cell-based, human; details: one dose 10 μM
# SF-539 (CNS cancer) = assay: NCI 60-cell one-dose antiproliferative screen; format: cell-based, human; details: one dose 10 μM
smiles,measurement,setting,value
"CN(C)c1ccc(C=NNc2ccc3nnc(-c4ccccc4)n3n2)cc1 [Compound 4c, N,N-Dimethyl-4-((2-(3-phenyl-[1,2,4]triazolo[4,3-b]pyridazin-6-yl)hydrazono)methyl)aniline]",GI%,OVCAR-5 (ovarian cancer),— (— GI% is below 15%)
same,GI%,A498 (renal cancer),— (— GI% is below 15%)
same,GI%,UACC-257 (melanoma),— (— GI% is below 15%)
same,GI%,TK-10 (renal cancer),— (— GI% is below 15%)
same,GI%,ACHN (renal cancer),21.61%
same,GI%,HCT-116 (colon cancer),— (— GI% is below 15%)
same,GI%,OVCAR-4 (ovarian cancer),41.36%
same,GI%,HT29 (colon cancer),— (— GI% is below 15%)
same,GI%,786-0 (renal cancer),18.27%
same,GI%,[1],— (— GI% is below 15%)
same,GI%,UO-31 (renal cancer),18.89%
same,GI%,SW-620 (colon cancer),— (— GI% is below 15%)
same,GI%,[2],— (— GI% is below 15%)
same,GI%,T-47D (breast cancer),22.66%
same,GI%,U251 (CNS cancer),24.58%
same,GI%,SF-268 (CNS cancer),57.96%
same,GI%,[3],40.80%
same,GI%,MDA-MB-435 (melanoma),— (— GI% is below 15%)
same,GI%,CCRF-CEM (leukemia),— (— GI% is below 15%)
same,GI%,SN12C (renal cancer),— (— GI% is below 15%)
same,GI%,EKVX (NSC lung cancer),21.18%
same,GI%,[4],38.62%
same,GI%,SNB-75 (CNS cancer),65.40%
same,GI%,DU-145 (prostate cancer),26.64%
same,GI%,HCT-15 (colon cancer),19.56%
same,GI%,RPMI-8226 (leukemia),— (— GI% is below 15%)
same,GI%,SF-295 (CNS cancer),— (— GI% is below 15%)
same,GI%,[5],55.19%
same,GI%,SNB-19 (CNS cancer),30.50%
same,GI%,M14 (melanoma),— (— GI% is below 15%)
same,GI%,LOX IMIV (melanoma),62.55%
same,GI%,MCF7 (breast cancer),34.47%
same,GI%,[6],— (— GI% is below 15%)
same,GI%,IGROV1 (ovarian cancer),— (— GI% is below 15%)
same,GI%,UACC-62 (melanoma),— (— GI% is below 15%)
same,GI%,RXF 393 (renal cancer),15.29%
same,GI%,CAKI-1 (renal cancer),32.25%
same,GI%,OVCAR-3 (ovarian cancer),34.65%
same,GI%,HCC-2998 (colon cancer),— (— GI% is below 15%)
same,GI%,HOP-92 (NSC lung cancer),29.78%
same,GI%,PC-3 (prostate cancer),18.94%
same,GI%,COLO-205 (colon cancer),— (— GI% is below 15%)
same,GI%,SK-MEL-28 (melanoma),— (— GI% is below 15%)
same,GI%,SK-MEL-2 (melanoma),— (— GI% is below 15%)
same,GI%,MALME-3M (melanoma),— (— GI% is below 15%)
same,GI%,HOP-62 (NSC lung cancer),— (— GI% is below 15%)
same,GI%,HS 578T (breast cancer),33.19%
same,GI%,SK-OV-3 (ovarian cancer),— (— GI% is below 15%)
same,GI%,OVCAR-8 (ovarian cancer),57.57%
same,GI%,[7],18.89%
same,GI%,KM12 (colon cancer),28.28%
same,inhibition at 10 µM,[8],17.7%
same,GI%,[9],— (— GI% is below 15%)
same,GI%,[10],— (— GI% is below 15%)
same,GI%,SF-539 (CNS cancer),— (— GI% is below 15%)

# Source: paper PMC11420776 (RSC Advances, 2024)
